Reference: publication PMC2533354, “Highly specific inhibition of leukaemia virus membrane fusion by interaction of peptide antagonists with a conserved region of the coiled coil of envelope” (Retrovirology, 2008)
Where a SMILES comes first, the peptide text is derived from it.

How the values were obtained:
HTLV-1 envelope = target: T1, HTLV-1 envelope (Human T-cell leukemia virus 1, UniProt P03381); assay: Syncytium interference assay, HTLV-1 envelope-expressing HeLa effector cells; type: cell-based; conditions: concentrations up to 20 μM and above; result in words
T1 construct: expressed in transfected cells; host or cells: HeLa
T1 sequence (P03381 313-488): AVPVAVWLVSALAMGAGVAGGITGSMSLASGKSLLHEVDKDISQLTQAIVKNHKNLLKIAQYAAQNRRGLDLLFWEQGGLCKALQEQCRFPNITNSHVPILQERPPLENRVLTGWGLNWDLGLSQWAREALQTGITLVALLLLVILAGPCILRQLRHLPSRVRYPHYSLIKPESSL
Experimental: (§1) Briefly, HeLa cells for use as effector cells were transfected with the envelope expression vector pHTE-1 or with equal amounts of pCMV-BLVenv-RRE and pRSV-Rev using the Genejuice™ transfection reagent (Novagen) in accordance with the manufacturer's instructions. 24 h later, 3 × 10^5 effector cells were added to 7 × 10^5 untransfected HeLa target cells in six-well dishes (Nunc). Where appropriate, the co-culture was incubated in the presence of peptides at the concentrations specified. To assess the ability of the peptides to inhibit fusion induced by virally expressed BLV envelope, 2 × 10^5 BLV-infected FLK cells were used as effectors and added to 8 × 10^5 uninfected HeLa cells. After incubation at 37°C for 16 h, cells were washed twice with PBS and fixed in PBS + 3% paraformaldehyde. Assays were performed in triplicate and the number of syncytia (defined as multinucleated cells with 4 or more nuclei) from 10 low-power fields (LPF) per replicate was scored by light microscopy; some assays were stained using Giemsa. A syncytium formation value of 100% is defined as the number of syncytia formed in the absence of peptide but in the presence of 1.5% DMSO.

BLV envelope = target: T2, BLV envelope (Bovine leukemia virus, UniProt P51519); assay: Syncytium interference assay, BLV envelope-expressing HeLa effector cells; type: cell-based; conditions: peptide at 20 μM; BLV envelope-expressing HeLa effectors (Figure 4B)
T2 construct: A fragment encompassing the entire BLV envelope open reading frame; expressed in transfected cells; host or cells: HeLa (co-transfected with pRSV-Rev)
T2 sequence (P51519 302-515): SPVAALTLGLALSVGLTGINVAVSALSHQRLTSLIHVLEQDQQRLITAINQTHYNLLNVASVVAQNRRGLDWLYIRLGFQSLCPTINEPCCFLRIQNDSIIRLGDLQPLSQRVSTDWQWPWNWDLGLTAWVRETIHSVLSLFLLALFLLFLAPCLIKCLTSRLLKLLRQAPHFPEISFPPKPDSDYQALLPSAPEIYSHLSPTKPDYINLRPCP
Experimental: as §1

[1] = Relative peptide solubility by laser nephelometry; type: physicochemical; conditions: filtered PBS with 1.5 % DMSO, maximum solubility in aqueous solution, two-fold serial dilution from DMSO stock, 200 μl, 1 hr at room temperature, laser nephelometry (forward scattered light, NEPHELOstar), duplicate wells, in solution if reading up to 3-fold the DMSO control
Experimental: A two-fold serial dilution of peptide in DMSO was performed, and added in duplicate to 96-well microplates. Filtered PBS was added to give a total volume of 200 μl and a final DMSO concentration of 1.5 % in all wells. The plates were incubated at room temperature for 1 hr and the relative solubility of peptides was established by measuring forward scattered light using a NEPHELOstar laser-based microplate nephelometer (BMG LABTECH). Wells containing PBS and 1.5 % DMSO only were used as blanks. Data analysis was carried out using ActivityBase, and peptides giving readings up to and including 3-fold higher than the average reading for the DMSO control were considered to be in solution at the concentrations specified.

[2] = test system: virally expressed BLV envelope (BLV-infected FLK cells); conditions: chronically BLV infected FLK effector cells + HeLa target cells; result in words (Figure 3C)
Experimental: as §1

CC[C@H](C)[C@H](NC(=O)[C@H](CCCNC(=N)N)NC(=O)[C@H](CC(C)C)NC(=O)[C@H](Cc1ccccc1)NC(=O)[C@H](CS)NC(=O)[C@H](CS)NC(C)=O)C(=O)N[C@@H](CCC(N)=O)C(=O)N[C@@H](CC(N)=O)C(=O)N[C@@H](CC(=O)O)C(=O)N[C@@H](CO)C(=O)N[C@H](C(=O)N[C@H](C(=O)N[C@@H](CCCNC(=N)N)C(=O)N[C@@H](CC(C)C)C(=O)NCC(=O)N[C@@H](CC(=O)O)C(=O)N[C@@H](CC(C)C)C(=O)N[C@@H](CCC(N)=O)C(=O)N1CCC[C@H]1C(=O)N[C@@H](CC(C)C)C(=O)N[C@@H](CO)C(=O)N[C@@H](CCC(N)=O)C(=O)N[C@@H](CCCNC(=N)N)C(=O)N[C@H](C(=O)N[C@@H](CO)C(=O)N[C@H](C(=O)N[C@@H](CC(=O)O)C(=O)N[C@@H](Cc1c[nH]c2ccccc12)C(=O)N[C@@H](CCC(N)=O)C(N)=O)[C@@H](C)O)C(C)C)[C@@H](C)CC)[C@@H](C)CC [P^BLV-391] (Ac-CCFLRIQNDSIIRLGDLQPLSQRVSTDWQ-NH2)
Inhibition of membrane fusion induced by HTLV-1 envelope (HTLV-1 envelope): failed to inhibit
Block of syncytium formation (BLV envelope): > 95%
solubility kinetic at 1 h [1]: > 90 µM
Inhibition of membrane fusion induced by virally expressed BLV envelope [2]: robustly antagonized
